According to patent US12492189B2, “Solid forms of an HIV capsid inhibitor” (Gilead Sciences, Inc., priority 2017, dated 2025):

Experiments:
HIV-IIIb = assay: Test A: Antiviral Assay in MT4 Cells; assay type: cell-based, HIV-1
Description: 1 mL Aliquots of MT4 cells were pre-infected for 3 hours at 37° C. with 25 μL of cell growth medium (mock-infected) or a fresh 1:250 dilution of an HIV-IIIb concentrated ABI stock (0.004 m.o.i.). Infected and uninfected cells were diluted in cell growth media and 35 μL (2000 cells) was added to each well of the assay plates.
Assay plates were then maintained in a humidified, 5% CO2 incubator at 37° C. After 5 days of incubation, 25 μL of 2× concentrated CellTiter-Glo™ Reagent (catalog #G7573, Promega Biosciences, Inc., Madison, WI) was added to each well of the assay plate. Cell lysis was carried out by incubating at room temperature for 10 minutes and then chemiluminescence was read using an Envision plate reader (PerkinElmer).

[1] = Test C: Pharmacokinetic analysis following intravenous administration to Sprague-Dawley rats; assay type: in vivo
Source text: (§2) Pharmacokinetic Analysis Following Intravenous Administration to Sprague-Dawley Rats and Beagle Dogs and Cynomolgous Monkeys
All IV formulations were in solution.
(§3) Each rat IV dosing group consisted of 3 male SD rats. […] The animals were fasted overnight prior to dose administration and up to 4 hr after dosing. Each dog IV dosing group consisted of 3 male, naïve beagle dogs. At dosing, the animals weighed ˜10-12 kg. The animals were fasted overnight prior to dose administration and up to 2 hr after dosing.
(§4) For the IV infusion group, the test compound was administered by intravenous infusion over 30 minutes. The rate of infusion was adjusted according to the body weight of each animal to deliver a dose of 1 mg/kg at 2 mL/kg.
(§5) Serial venous blood samples (approximately 0.4 mL each for rat and 1.0 mL for dog) were taken at specified time points after dosing from each animal. The blood samples were collected into Vacutainer™ tubes (Becton-Disckinson Corp, New Jersey, USA) containing EDTA as the anti-coagulant and were immediately placed on wet ice pending centrifugation for plasma. Centrifugation began within 1 hour of collection. All samples were placed into 96-well tubes and maintained on dry ice prior to storage at approximately −70° C.
(§6) An LC/MS/MS method was used to measure the concentration of test compounds in plasma.
(§7) Non-compartmental pharmacokinetic analysis was performed on the plasma concentration-time data.

[2] = Test C: Pharmacokinetic analysis following intravenous administration to beagle dogs; assay type: in vivo
Source text: as §2
All IV formulations were in solution.
as §3, §4, §5, §6, §7

Human Liver Hepatocytes = assay: Test D: Metabolic Stability in Cultured Human Liver Hepatocytes; assay type: in vitro ADME
Description: Test D. Metabolic Stability in Cultured Human Liver Hepatocytes
The final hepatocyte concentration was 1 million cells/mL. The hepatocyte/compound reaction mixture was dissolved in InVitroGRO™ KHB buffer (catalog #Z99074, BioreclamationIVT, Inc., Baltimore, MD) at pH 7.4. The incubations were performed in duplicate. A cell free control and a positive control were included in the incubations. The incubations were carried out with gentle shaking in a 37° C. incubator under a humid atmosphere of 95% air/5% CO2 (v/v). Aliquots (100 mL) were removed after 0, 1, 3, and 6 hours and added to 200 mL quenching solution that comprised 0.1% (v/v) TFA in 5% water/95% acetonitrile (v/v). The samples were placed on a shaker for 10 min, followed by centrifugation at 3000 g for 30 min. The samples of the supernatant were analyzed on a Dionex HPLC/PerkinElmer Flow Scintillation Analyzer as described below.
The column was a Phenomenex Synergi fusion RP (150×4.6 mm, 4 mm) maintained at 32 degrees Celsius. Mobile Phase A consisted of 0.1% (v/v) TFA in 99% water/1% acetonitrile (v/v). Mobile Phase B consisted of 0.1% (v/v) TFA in 5% water/95% acetonitrile (v/v). The flow rate was 1 mL/min using a sample injection volume of 100 mL.
Metabolic stability was determined by measuring the change in relative abundance of metabolites and parent over time and calculating from it the rate of disappearance of the parent compound. The stability data was utilized to calculate predicted human hepatic clearance values according to methods known in the art.

[3] = Pharmacokinetic profile after subcutaneous dosing of formulations in dogs (Formulation Examples A-D); assay type: in vivo; conditions: solution in 10% ethanol, 13% water, 6 mg/kg
Description: The suspension was administered to dogs subcutaneously at a dose of 6 mg/kg and the pharmacokinetic (PK) profile was determined.
The solution was administered to dogs subcutaneously at a dose of 6 mg/kg and the pharmacokinetic (PK) profile was determined.
Subjects were orally dosed with this formulation at 6 mg/kg. […] The solution was administered to dogs subcutaneously at a dose of 6 mg/kg and the pharmacokinetic (PK) profile was determined.

pKa of Compound 1 = assay type: physicochemical
Source text: (§1) In solution, the two atropisomers coexist in the ratio of about 1:5 to 1:8 (Isomer A:Isomer B), depending on temperatures and pH.

[4] = Atropisomer equilibrium and interconversion in solution; assay type: physicochemical
Source text: as §1

| times longer in vivo terminal half-life in rat ([1]; relative to compound A) | times lower in vivo clearance in rat ([1]; relative to compound A) | times longer in vivo terminal half-life in rat ([1]; relative to compound B) | times lower in vivo clearance in rat ([1]; relative to compound B) | times longer in vivo terminal half-life in dog ([2]; relative to compound A) | times lower in vivo clearance in dog ([2]; relative to compound A) | times longer in vivo terminal half-life in dog ([2]; relative to compound B) | times lower in vivo clearance in dog ([2]; relative to compound B) | Predicted Human Hepatic Clearance (Human Liver Hepatocytes; calculated from stability in pooled cryopreserved human hepatocytes, […], up to 6 hours) | times more stable in human hepatocytes (lower predicted hepatic clearance) (Human Liver Hepatocytes; relative to compound A) | times more stable in human hepatocytes (lower predicted hepatic clearance) (Human Liver Hepatocytes; relative to compound B) | plasma concentration of Compound 1 at day 28 ([3]; 77% PEG 200 (200 mg/mL) with 1.2 molar equivalent NaOH (in situ sodium salt), FIG. 29) | plasma concentration of Compound 1 at day 28 ([3]; 77% glycofurol (200 mg/mL) with 1.2 molar equivalent NaOH (in situ sodium salt), FIG. 30) | pKa (pKa of Compound 1; weak acid, at sulfonamide) | pKa (pKa of Compound 1; weak base, at pyridine) | half-life ([4]; in solution at 37° C., read-out: t½ of re-equilibration of separated atropisomers) | rotational energy barrier ([4]; rotation along one of the C—C bonds (atropisomers)) | EC50 (HIV-IIIb; Human immunodeficiency virus 1, IIIB, MT4, 120 h) | SMILES | times more potent in HIV antiviral assay (HIV-IIIb; relative to compound A) | times more potent in HIV antiviral assay (HIV-IIIb; relative to compound B) |
| --- | --- | --- | --- | --- | --- | --- | --- | --- | --- | --- | --- | --- | --- | --- | --- | --- | --- | --- | --- | --- |
| about 14 times | about 10 times | about 9 times | about 8.6 times | about 5 times | about 3 times | about 4 times | about 4 times | 0.17 mL/min/kg | about 9 times | about 4 times | measurable | measurable | 6.7 | < 1 | 1 to 2 h | about 24 kcal/mol |  | CC(C)(C#Cc1ccc(-c2ccc(Cl)c3c(NS(C)(=O)=O)nn(CC(F)(F)F)c23)c([C@H](Cc2cc(F)cc(F)c2)NC(=O)Cn2nc(C(F)(F)F)c3c2C(F)(F)[C@@H]2C[C@H]32)n1)S(C)(=O)=O [Compound 1, N—((S)-1-(3-(4-Chloro-3-(methylsulfonamido)-1-(2,2,2-trifluoroethyl)-1H-indazol-7-yl)-6-(3-methyl-3-(methylsulfonyl)but-1-yn-1-yl)pyridin-2-yl)-2-(3,5-difluorophenyl)ethyl)-2-((3bS,4aR)-5,5-difluoro-3-(trifluoromethyl)-3b,4,4a,5-tetrahydro-1H-cyclopropa[3,4]cyclopenta[1,2-c]pyrazol-1-yl)acetamide] | about 9 times | about 16 times |
|  |  |  |  |  |  |  |  |  |  |  |  |  |  |  |  |  | 2.99 nM | Cn1nc(NS(C)(=O)=O)c2c(Cl)ccc(-c3ccc(C#CC(C)(C)O)nc3[C@H](Cc3cc(F)cc(F)c3)NC(=O)Cn3nc(C(F)(F)F)c4c3C(F)(F)[C@@H]3C[C@H]43)c21 [Compound B, reference compound] |  |  |
